Reference: patent publication US20160289188A1, “COMPOSITIONS AND METHODS FOR THE TREATMENT OF VIRAL DISEASES WITH PDE4 MODULATORS” (priority 2013, published 2016)
Like-named read-outs stand apart in the source and are kept apart here.

Key:
rJunin (rRomero) virus = tested on: rJunin (rRomero) virus; parameters: species or system guinea pigs; settings: guinea pig, in vivo
Lassa (Josiah) virus = tested on: Lassa (Josiah) virus; parameters: species or system guinea pigs; settings: guinea pig, in vivo
Junin virus = tested on: Junin virus; parameters: species or system guinea pigs; settings: guinea pig, in vivo
[1] = Pharmacokinetics and tolerability in guinea pigs (Example 1); settings: 50 mg/kg PO, blood by vena cava bleed

| SMILES | (highest) average weight loss (rJunin (rRomero) virus) | survival rate (rJunin (rRomero) virus) | temperature findings (febrile, hypothermic) (rJunin (rRomero) virus) | (highest) average weight loss (Lassa (Josiah) virus) | animals surviving to the end of study (Lassa (Josiah) virus) | temperature findings (febrile, hypothermic) (Lassa (Josiah) virus) | average weight loss (Junin virus) | survival rate (Junin virus) | temperature findings (febrile, hypothermic) (Junin virus) | adequacy of the dose according to the pharmacokinetic results [1] | further results |
| --- | --- | --- | --- | --- | --- | --- | --- | --- | --- | --- | --- |
| COc1ccc(C(CC(N)=O)N2Cc3ccccc3C2=O)cc1OC (stereo not drawn) [Compound A, 3-(3,4-dimethoxy-phenyl)-3-(1-oxo-1,3-dihydro-isoindol-2-yl)-propionamide] | 1.33% | 33% | All animals that died were febrile between day +7 and +15 and four out of six were hypothermic before death | 12.17% | None of the animals survived | All animals were febrile between day +7 and +19 and two were hypothermic before death | 0.69% | 50% | All animals that died were febrile between day +7 and +10 and two were hypothermic on day +14 | within range | (highest) average weight loss (rJunin (rRomero) virus; po, 50 mg/kg): 5.89%; survival rate (rJunin (rRomero) virus; po, 50 mg/kg): 22%; temperature findings (febrile, hypothermic) (rJunin (rRomero) virus; po, 50 mg/kg): All animals that died were febrile between day +5 and +13 and three out of seven were hypothermic before death; (highest) average weight loss (Lassa (Josiah) virus; po, 50 mg/kg): 5.36%; survival rate (Lassa (Josiah) virus; po, 50 mg/kg): 44%; temperature findings (febrile, hypothermic) (Lassa (Josiah) virus; po, 50 mg/kg): All animals, including the survivors, were febrile between day +7 and +17 and none of the animals were hypothermic before death |
| CCOc1cc(C(CS(C)(=O)=O)N2Cc3cccc(NC(=O)C4CC4)c3C2=O)ccc1OC (stereo not drawn) [Compound B, N-(2-(1-(3-ethoxy-4-methoxyphenyl)-2-(methylsulfonyl)ethyl)-3-oxoisoindolin-4-yl)cyclopropanecarboxamide] | 12.41% | 11% | All of the animals in this group except the survivor were febrile starting day +7 thru +11 and four were recorded as hypothermic before death | 13.08% | – | All of the animals in this group except the survivor were febrile starting day +8 thru +16 and only one was recorded as hypothermic before death | 4.4% | 17% | Most of the animals in this group were febrile starting at day +7 but none were recorded as hypothermic | needed to be increased | survival rate (Lassa (Josiah) virus): 13% |
| NC(=O)c1ncn([C@@H]2O[C@H](CO)[C@@H](O)[C@H]2O)n1 [Ribavirin, reference compound] | – | – | Only one animal was intermittently febrile between days +16 and +27 | – | only one animal survived | Only one of the two animals that died was febrile once on day +17 | – | – | Only 1 animal was febrile on day +27 | – | animals surviving to the end of study (rJunin (rRomero) virus): all 3 animals survived; weight loss of the intermittently febrile animal (rJunin (rRomero) virus): 17.67%; weight loss up to (rJunin (rRomero) virus): up to 3.09%; average group weight loss up to (Lassa (Josiah) virus): up to 15.39%; animals surviving to the end of study (Junin virus): all 3 animals survived; weight loss up to (Junin virus): up to 5.2% |
